# pIC50: −log10 of the molar value. Counter-ions that a name gives are not always drawn.
# How the values were obtained:
# [1] = system: HCT116 (colorectal carcinoma, K Ras G13D) cells; assay: Cell proliferation (Alamar Blue) assay, HCT116; type: cell-based, human; conditions: Homo sapiens, HCT-116, HCT116 cells
# Procedure: (§1) Cell Proliferation (Alamar Blue) Assay
# (§2) HT-29 (colorectal carcinoma, B-RafV600E), HCT116 (colorectal carcinoma, K Ras G13D), A375 (melanoma, B-RafV600E) and SK-Mel2 (melanoma, NRAS Q61R) cells (obtained from ATCC, USA) were seeded (5000 cells/well) in 96-well tissue culture plate and incubated at 37° C./5% CO2 for 16-24 hours. The cells were then treated with compounds, at concentrations typically from 0.0005 to 10 uM prepared in 3-fold serial dilutions. The plates were then incubated for 72 h at 37° C./5% CO2 in a moist environment. Then Alamar Blue™ reagent (final concentration 1×) was added to each well and incubated for 1-3 h at 37° C./5% CO2. The plates were read on fluorescence reader at 540 nm excitation and 590 nm emission wavelengths. The IC50 values were subsequently determined using a sigmoidal dose-response curve (variable slope) using GraphPad Prism® 5 software.
# [2] = system: HT-29 (colorectal carcinoma, B-RafV600E) cells; assay: Cell proliferation (Alamar Blue) assay, HT-29; type: cell-based, human; conditions: Homo sapiens, HT-29, HT29 cells
# Procedure: as §1, §2
Compound,pIC50 [1],pIC50 [2]
"Cc1cnc(Nc2ccc3c(c2)OCO3)cc1-n1cnc(C(=O)NC(CO)c2cccc(Cl)c2)c1 (stereo not drawn) [Example 88, 1-(2-(benzo[d][1,3]dioxol-5-ylamino)-5-methyl-pyridin-4-yl)-N-(1-(3-chloro-phenyl)-2-hydroxy-ethyl)-1H-imidazole-4-carboxamide]",< 5.60,< 5.60
"Cc1cnc(Nc2ccccc2)cc1-n1cnc(C(=O)NC(CO)c2ccccc2)c1 (stereo not drawn) [Example 89, N-(2-hydroxy-1-phenylethyl)-1-(5-methyl-2-(phenyl-amino)pyridin-4-yl)-1H-imidazole-4-carboxamide]",< 5.60,< 5.60
"Cc1cnc(Nc2ccc3c(c2)OC(F)(F)O3)cc1-n1cnc(C(=O)NC(CO)c2cccc(Cl)c2)c1 (stereo not drawn) [Example 90, N-(1-(3-chlorophenyl)-2-hydroxy-ethyl)-1-(2-((2,2-difluoro-benzo[d][1,3]dioxol-5-yl)amino)-5-methyl-pyridin-4-yl)-1H-imidazole-4-carboxamide]",< 5.60,< 5.60
"Cc1cnc(Nc2ccc3c(c2)OC(F)(F)O3)cc1-n1ccc(C(=O)NC(CO)c2cccc(Cl)c2)c1 (stereo not drawn) [Example 92, N-(1-(3-chlorophenyl)-2-hydroxy-ethyl)-1-(2-((2,2-difluoro-benzo[d][1,3]dioxol-5-yl)amino)-5-methyl-pyridin-4-yl)-1H-pyrrole-3-carboxamide]",< 5.60,5.60 to 6.30
"Cc1cnc(Nc2ccc(F)cc2Cl)nc1-n1ccc(C(=O)N[C@@H](CN(C)C)c2ccccc2)c1 [Example 97, (R)-1-(2-((2-chloro-4-fluorophenyl)amino)-5-methyl-pyrimidin-4-yl)-N-(2-(dimethyl-amino)-1-phenylethyl)-1H-pyrrole-3-carboxamide]",< 5.60,< 5.60
"Cc1cnc(Nc2ccc3c(c2)OC(F)(F)O3)cc1-n1cnc(C(=O)NC(CN)Cc2ccccc2)c1 (stereo not drawn) [Example 99, N-(1-amino-3-phenyl-propan-2-yl)-1-(2-((2,2-difluoro-benzo[d][1,3]dioxol-5-yl)amino)-5-methyl-pyridin-4-yl)-1H-imidazole-4-carboxamide]",< 5.60,< 5.60
"Cc1cnc(Nc2cc3c(cc2Cl)OCO3)nc1-n1ccc(C(=O)NC(CO)c2cccc(Cl)c2)c1 (stereo not drawn) [Example 101, 1-(2-((6-chloro-benzo[d][1,3]dioxol-5-yl)amino)-5-methyl-pyrimidin-4-yl)-N-(1-(3-chlorophenyl)-2-hydroxy-ethyl)-1H-pyrrole-3-carboxamide]",< 5.60,5.60 to 6.30
"Cc1cnc(Nc2ccc3c(c2)OCO3)nc1-n1ccc(C(=O)NC(CO)c2cccnc2)c1 (stereo not drawn) [Example 103, 1-(2-(benzo[d][1,3]dioxol-5-ylamino)-5-methyl-pyrimidin-4-yl)-N-(2-hydroxy-1-(pyridin-3-yl)ethyl)-1H-pyrrole-3-carboxamide]",< 5.60,< 5.60
"Cc1cnc(Nc2ccc3ocnc3c2)nc1-n1ccc(C(=O)NC(CO)c2ccccc2)c1 (stereo not drawn) [Example 104, 1-(2-(benzo[d]oxazol-5-ylamino)-5-methyl-pyrimidin-4-yl)-N-(2-hydroxy-1-phenylethyl)-1H-pyrrole-3-carboxamide]",< 5.60,< 5.60
"Cc1cn(-c2nc(Nc3ccc(F)cc3)ncc2C)cc1C(=O)NC(CO)c1ccccc1 (stereo not drawn) [Example 108, 1-(2-((4-fluoro-phenyl)amino)-5-methyl-pyrimidin-4-yl)-N-(2-hydroxy-1-phenylethyl)-4-methyl-1H-pyrrole-3-carboxamide]",< 5.60,< 5.60
"O=C(NC(CO)c1cccc(Cl)c1)c1ccn(-c2ccnc(Nc3ccc(F)cc3Cl)n2)c1 (stereo not drawn) [Example 111, 1-(2-((2-chloro-4-fluorophenyl)amino)pyrimidin-4-yl)-N-(1-(3-chlorophenyl)-2-hydroxy-ethyl)-1H-pyrrole-3-carboxamide]",< 5.60,< 5.60
"NCC(Cc1ccccc1)NC(=O)c1ccn(-c2ccnc(Nc3ccc(F)cc3)c2)c1 (stereo not drawn) [Example 119, N-(1-amino-3-phenyl-propan-2-yl)-1-(2-((4-fluoro-phenyl)amino)pyridin-4-yl)-1H-pyrrole-3-carboxamide]",< 5.60,< 5.60
"Cc1cnc(NC2CCOCC2)nc1-n1ccc(C(=O)NC(CO)c2ccccc2)c1 (stereo not drawn) [Example 120, N-(2-hydroxy-1-phenylethyl)-1-(5-methyl-2-((tetrahydro-2H-pyran-4-yl)amino)pyrimidin-4-yl)-1H-pyrrole-3-carboxamide]",< 5.60,< 5.60
"Cc1cnc(NC2(CO)CC2)nc1-n1ccc(C(=O)NC(CO)c2ccc(F)c(Cl)c2)c1 (stereo not drawn) [Example 203, N-(1-(3-chloro-4-fluorophenyl)-2-hydroxyethyl)-1-(2-((1-(hydroxymethyl)cyclopropyl)amino)-5-methylpyrimidin-4-yl)-1H-pyrrole-3-carboxamide]",< 5.60,< 5.60
"Cc1cnc(NC2CCN(C)C2)nc1-n1ccc(C(=O)N[C@H](CO)c2cccc(Cl)c2)c1 (stereo partly drawn) [Example 208, N-((S)-1-(3-chlorophenyl)-2-hydroxyethyl)-1-(5-methyl-2-((1-methylpyrrolidin-3-yl)amino)pyrimidin-4-yl)-1H-pyrrole-3-carboxamide]",< 5.60,5.60 to 6.30
"Cc1cnc(Nc2ccc3[nH]cc(C4=CCNCC4)c3c2)nc1-n1ccc(C(=O)NC(CO)c2cccc(Cl)c2)c1 (stereo not drawn) [Example 209, N-(1-(3-chlorophenyl)-2-hydroxyethyl)-1-(5-methyl-2-((3-(1,2,3,6-tetrahydropyridin-4-yl)-1H-indol-5-yl)amino)pyrimidin-4-yl)-1H-pyrrole-3-carboxamide hydrochloride]",< 5.60,< 5.60
"Cc1cnc(NC2CCOCC2)nc1-n1cnc(C(=O)N[C@@H](CO)c2cccc(Cl)c2)c1 [Example 217, (R)-N-(1-(3-chlorophenyl)-2-hydroxyethyl)-1-(5-methyl-2-((tetrahydro-2H-pyran-4-yl)amino)pyrimidin-4-yl)-1H-imidazole-4-carboxamide]",< 5.60,< 5.60
"CC[C@@H](CO)Nc1ncc(C)c(-n2ccc(C(=O)N[C@@H](CO)c3cccc(Cl)c3)c2)n1 [Example 218, N-((R)-1-(3-chlorophenyl)-2-hydroxyethyl)-1-(2-(((S)-1-hydroxybutan-2-yl)amino)-5-methylpyrimidin-4-yl)-1H-pyrrole-3-carboxamide]",< 5.60,< 5.60
"NCC(NC(=O)c1cn(-c2ccnc(Nc3ccc(F)cc3)c2)cn1)c1ccccc1 (stereo not drawn) [Example 221, N-(2-amino-1-phenylethyl)-1-(2-((4-fluorophenyl)amino)pyridin-4-yl)-1H-imidazole-4-carboxamide]",5.60 to 6.30,6.30 to 6.60
"Cc1cnc(Nc2ccc(F)cc2)cc1-n1cnc(C(=O)NC(CO)c2ccccc2)c1 (stereo not drawn) [Example 222, 1-(2-((4-fluorophenyl)amino)-5-methylpyridin-4-yl)-N-(2-hydroxy-1-phenylethyl)-1H-imidazole-4-carboxamide]",< 5.60,< 5.60
"Cc1cnc(Nc2ccc(F)c(N3CCOCC3)c2)nc1-n1cnc(C(=O)NC(CO)c2cccc(Cl)c2)c1 (stereo not drawn) [Example 223, N-(1-(3-chlorophenyl)-2-hydroxyethyl)-1-(2-((4-fluoro-3-morpholinophenyl)amino)-5-methylpyrimidin-4-yl)-1H-imidazole-4-carboxamide]",6.30 to 6.60,6.30 to 6.60
